Assays:
[1] = UV absorption and fluorescence spectra; type: physicochemical
Protocol: The crude product was then injected onto a semi-preparative HPLC column, where the flow rate was 3 mL/min, with the mobile phase starting from 5% solvent B (0.1%TFA in CH3CN) and 95% solvent A (0.1%TFA in water) (0-3 min) to 65% solvent B and 35% solvent A at 33 min, then going to 85% solvent B and 15% solvent A (33-36 min), maintaining this solvent composition for another three minutes (36-39 min), and returning to initial solvent composition by 42 min. Product elution was monitored at both 218 and 590 nm using a UV-Vis detector. The product peak was collected, lyophilized, and identified by MALDI-TOF-MS. The chemical purity of product was determined by analytical HPLC (same gradient as used for semi-preparative HPLC; flow rate: 1.0 ml/min). The product was re-dissolved in saline at a concentration of 1 mg/mL, and stored in the dark at −80° C. until use. The absorbance spectrum of Cy5.5-2DG was rerecorded on an Agilent 8453 UV-visible ChemStation (Agilent Technologies, Wilmington, DE), and fluorescence spectrum of Cy5.5-2DG was measured on a Fluoromax-3 fluorophotometer (JOBIN YVON/HORIBA, Edison, N.J.).

[2] = tested on: A375M human melanoma cells; experiment: In vitro cell uptake by fluorescence microscopy, A375M; type: cell-based; conditions: 1 hour
Protocol: (§1) For fluorescence microscopic studies, 1 M cells were cultured on 35 mm MatTek glass bottom culture dishes (Cat #: P35G-0-14-C, Ashland, Mas.). After 24 hours, the cells were washed with phosphate-buffered saline (PBS) and then incubated at 37° C. or 4° C. in the presence of 100 nM Cy5.5-2DG for 1 hour. Afterwards, cells were washed in 1 mL ice-cold PBS. The fluorescence signal of the cells was recorded using an Axiovert 200M fluorescence microscope (Carl Zeiss MicroImaging, Inc., Thornwood, N.Y.) equipped with a Cy5.5 filter set (Exciter, HQ 650/20 nm; Emitter, HQ 675/35 nm). An AttoArc HBO 100 W microscopic illuminator was used as a light source for fluorescence excitation. Images were taken using a thermoelectrically cooled charge-coupled device (CCD) (Micromax, model RTE/CCD-576, Princeton Instruments Inc., Trenton, N.J.) and analyzed using WinView Software version 1.6.2 (Princeton Instruments Inc., Trenton, N.J.)
The light images (FIGS. 7A and 7B) show cells in the optical field.

C6 rat glioma cells = experiment: In vitro cell uptake by fluorescence microscopy, C6; type: cell-based; conditions: 1 hour
Protocol: as §1
Additional in vitro studies were conducted with several other tumor cells lines, including C6 rat glioma cells. Following the procedure set forth in Example 2, the glioma cells were incubated for one hour at 37° C. or at 4° C., and light images and fluorescent images were taken. The light images are shown in FIGS. 6A and 6B and the fluorescent images in FIGS. 6C and 6D. Both light images show cells in the image field.

[3] = tested on: human melanoma (A375M) xenograft; experiment: In vivo fluorescence imaging of mice bearing a human melanoma (A375M) xenograft; conditions: n=3
Protocol: Another study was conducted using mice (n=3) bearing a human melanoma (A375M) xenograft. When the tumor reached […] diameter, the mice received via tail vein injection 500 pmol of Cy5.5-2DG compound.

[4] = tested on: human glioblastoma cells (U87MG); experiment: In vitro cell uptake by fluorescence microscopy, U87MG; type: cell-based; conditions: 100 nM, 1 hour
Protocol: Human glioblastoma U87MG cells were cultured in Dulbecco's modified Eagle medium (DMEM, Invitrogen Life Technologies, Carlsbad, Calif.), high glucose plus 10% fetal bovine serum (FBS), and 1% penicillin-streptomycin. The cells were maintained in a humidified atmosphere of 5% CO2 at 37° C., with the medium changed every other day. A confluent monolayer was detached with trypsin and dissociated into a single cell suspension for further cell culture.
as §1, with “After 24 hours, the cells were washed with phosphate-buffered saline (PBS) and then incubated at 37° C. or 4° C. in the presence of 100 nM Cy5.5-2DG for 1 hour. Afterwards, cells were washed in 1 mL ice-cold PBS.” left out
Tumor uptake of the Cy5.5-2DG compound into human glioblastoma cells (U87MG) was determined by incubating the cells in vitro with the compound for one hour at either 37° C. or at 4° C., as described in Example 2. […]

[5] = tested on: MDA-MB-435 human breast carcinoma cells; experiment: In vitro cell uptake by fluorescence microscopy, MDA-MB-435; type: cell-based; conditions: 1 hour
Protocol: as §1
FIGS. 9A-9D illustrate the results of a similar study using MDA-MB-435 human breast carcinoma cells. Incubation at 37° C. […] (FIGS. 9B and 9D).

[6] = Stability on in vitro incubation in mouse serum, HPLC analysis; type: in vitro ADME; conditions: 30 minutes incubation in mouse serum
Protocol: The stability of the Cy5.5-2DG compound was evaluated by incubating the compound in vitro in mouse serum and analyzing the serum as a function of time by high pressure liquid chromatography (HPLC). […] The main peak is observed at 15.2 minutes.

[7] = tested on: human glioblastoma xenograft (U87MG); experiment: In vivo fluorescence imaging of mice bearing a U87MG glioblastoma xenograft
Protocol: All animal studies were carried out in compliance with federal and local institutional rules for the conduct of animal experimentation. Female athymic nude mice (nu/nu, 10-12 weeks old), obtained from Charles River Laboratories (Boston, Mas.), were inoculated subcutaneously in the right foreleg with 5×10^6 U87MG cultured glioblastoma cells suspended in 100 μL of PBS. Two to three weeks after inoculation, when the tumors reached 0.4-0.6 cm in diameter, the tumor bearing mice were subject to in vivo imaging studies.
In vivo fluorescence imaging was performed with a cooled charged-coupled device (CCD) camera (Xenogen IVIS™ 200 small animal imaging system, Xenogen, Alameda, Calif.). A Cy5.5 filter set was used for acquiring Cy5.5-2DG fluorescence in vivo. Identical illumination settings (lamp voltage, filters, f/stop, field of views, binning) were used for acquiring all images, and fluorescence emission was normalized to photons per second per centimeter squared per steradian (p/s/cm^2/sr). Images were acquired and analyzed using Living Image® D2.5 software (Xenogen).
Mice were injected via tail vein with 50 or 500 pmol Cy5.5-2DG and subjected to optical imaging at various time points post injection with a sampling of multiple angles while remaining sedated. […]
All the data are given as means ± SD of n independent measurements. Statistical analysis was performed using a Student's t-test. Statistical significance was assigned for P values <0.05. For determining tumor contrast, mean fluorescence intensities of the tumor area at the right shoulder of the animal (T) and of the corresponding area at the left shoulder (N) were calculated by means of the region of interest function of Living Image software(Xenogen) integrated with Igor (Wavemetrics, Lake Oswego, Oreg.). Dividing T by N yielded the contrast between tumor tissue and normal tissue.
In vivo studies were done to evaluate performance of the Cy5.5-2DG compound in tumor-bearing subjects. As described in Example 3, mice were inoculated in the right foreleg with 5×10^6 U87MG cultured glioblastoma cells. Two to three weeks after inoculation, when the tumors reached 0.4-0.6 cm in diameter, the tumor-bearing mice were used for in vivo imaging studies.
In one study, the mice received 500 pmol of Cy5.5-2DG compound, injected via tail vein. At various times post injection of the probe, an animal was sedated and then imaged using a small animal imaging system available under the trade designation IVIS® (Xenogen, Alameda, Calif.). In other studies described below with respect to FIGS. 22-23, imaging was also done using an imaging system from ART eXplore Optix (ART Inc./GE Healthcare) and compared to imaging using the imaging system IVIS®. FIGS. 10A-10M are images generated with the IVIS® system of sedated, live mice in the prone position as a function of time after administration of 500 pmol of Cy5.5-2DG. […] At 1 hour (FIG. 10B), 2 hours (FIG. 10C), 4 hours (FIG. 10D), and 5 hours (FIG. 10E), the probe progressively clears from the body and begins to localize in the tumor in the right foreleg. In fact, by two hours post injection, accumulation of the compound in the tumor is readily apparent in the image (FIG. 10C). […] The presence of the probe in the tumor is apparent in all the images, long after the probe has cleared from healthy tissue.

[8] = tested on: murine melanoma cells B16F10; experiment: In vitro cell uptake by fluorescence microscopy, B16F10; type: cell-based; conditions: 1 hour
Protocol: as §1
FIGS. 8A and 8C show a light image (FIG. 8A) and a fluorescent image (FIG. 8C) of murine melanoma cells B16F10 incubated in vitro with Cy5.5-2DG for one hour at 37° C. […] FIGS. 8B and 8D show a light image (FIG. 8B) and a fluorescent image (FIG. 8D) of the same type of cells incubated in vitro with Cy5.5-2DG for one hour at 4° C.

[9] = 500 pmol i.v., lateral position

In the case of `CCN1\C(=C/C=C/C=C/C2=[N+](CCCCCC(=O)O)c3ccc4c(S(=O)(=O)O)cc(S(=O)(=O)O)cc4c3C2(C)C)C(C)(C)c2c1ccc1c(S(=O)(=O)[O-])cc(S(=O)(=O)O)cc21` [Cy5.5® dye, reference compound], the UV absorption wavelength [1] is reported as “about 675 nm” and the fluorescent emission wavelength [1] is reported as “about 694 nm”.

For `CC[N+]1=C(C=CC=CC=C2N(CCCCCC(=O)NC3C(O)OC(CO)C(O)C3O)c3ccc4c(S(=O)(=O)[O-])cc(S(=O)(=O)O)cc4c3C2(C)C)C(C)(C)c2c1ccc1c(S(=O)(=O)[O-])cc(S(=O)(=O)O)cc21.[K+]` (stereo not shown) [Cy5.5-2DG], the “uptake into the cells” value ([2]; 4° C.) was “no apparent fluorescence”, the “uptake into the cells” value ([2]; 37° C.) was “took in the compound” and the “uptake into the cells” value (C6 rat glioma cells; 4° C.) was “took up little, if any, of the compound”. For the same compound, the “uptake into the cells” value (C6 rat glioma cells; 37° C.) was “distinct fluorescing cells visible”, the UV absorption wavelength [1] was “about 675 nm” and the fluorescent emission wavelength [1] was “about 694 nm”. For the same compound, the “fluorescence of tumor tissue” value ([3]; 500 pmol i.v., 3, 24 and 48 hours post-injection) was “continued preferential fluorescence of tumor tissue”, the “localization in the tumor” value ([3]; 500 pmol i.v., 2 hours post-injection) was “localization of the compound in the tumor is apparent” and the “uptake of the fluorescent compound by the cells” value ([4]; 4° C.) was “lack of fluorescing cells”. The “uptake of the fluorescent compound by the cells” value ([4]; 37° C.) was “considerably more uptake”, the “uptake into the tumor cells” value ([5]; 4° C.) was “little of the compound” and the “uptake into the tumor cells” value ([5]; 37° C.) was “resulted in uptake”. For the same compound, the “stability in mouse serum” value [6] was “stable”, the “ratio of fluorescence intensity of tumor tissue to healthy tissue” value ([7]; 50 pmol i.v., lateral position) was “about two” and the “time after injection at which accumulation in the tumor is apparent” value ([7]; 50 pmol i.v., lateral position) was 1 h. The “time after injection at which preferential accumulation in the tumor is apparent” value ([7]; 50 pmol i.v., prone position) was 30 min, the “time to maximum fluorescence intensity” value ([7]; 50 pmol i.v., prone position) was no more than 30 min and the “ratio of fluorescence intensity of tumor tissue to healthy tissue” value ([7]; 50 pmol i.v., prone position, 30 minutes after injection) was 1.5. For the same compound, the “ratio of fluorescence intensity of tumor tissue to healthy tissue” value ([7]; 50 pmol i.v., prone position, by about 10 hours after injection) was “more than two”, the “latest time point with fluorescence of the tumor tissue observed” value [7, 9] was 94 h and the “time by which compound has cleared from the tumor (tumor no longer visible)” value [7, 9] was no more than 114 h. The “time post injection at which localization in the tumor is apparent in the image” value [7, 9] was “two”, the “ratio of fluorescence intensity of tumor tissue to healthy tissue” value ([7]; 500 pmol i.v., lateral position, by about five hours post injection) was “two” and the “ratio of fluorescence intensity of tumor tissue to healthy tissue” value ([7]; 500 pmol i.v., lateral position, up to 100 hours post injection) was “around two”. The “time post injection at which accumulation in the tumor is apparent in the image” value ([7]; 500 pmol i.v., prone position) was “two”, the “ratio of fluorescence intensity of tumor tissue to healthy tissue (average radiance)” value (from here on “ratio … (average radiance)”) ([7]; 500 pmol i.v., prone position, 120 hours post injection) was 1.5 and the “ratio … (average radiance)” value ([7]; 500 pmol i.v., prone position, about 4 hours post-injection) was 1.5. For the same compound, the “ratio … (average radiance)” value ([7]; 500 pmol i.v., prone position, about 18 hours post injection) was “two”, the “ex vivo fluorescence of dissected tumor versus major tissues and organs” value ([7]; 500 pmol, 45 hours post injection) was “highest fluorescence intensity among the tissues imaged” and the “retention in the tumor” value ([7]; after single administration) was “up to 100 hours”. For the same compound, the “uptake into the cells” value ([8]; 4° C.) was “Little, if any” and the “uptake into the cells” value ([8]; 37° C.) was “Uptake of the compound into the cells is apparent”.
